Measured values reported in US7947647B2, “Synthetic mimics of mammalian cell surface receptors: method and compositions” (The Penn State Research Foundation, priority 2004, dated 2011).
Values joined by “and” are separate entries in the source; they are usually repeats but may differ in a detail not shown here. Equal values may be shown once.

Tests used:
Jurkat lymphocytes [1] = test: Uptake of AcGFP-oligohistidine fusion proteins (flow cytometry); format: cell-based, human; conditions: receptor 10 μM preloaded 1 h, protein 3.2 μM, Ni(OAc)2 100 μM
Protocol: FIG. 25. Analysis of cellular uptake of His-tagged AcGFP proteins by flow cytometry. Each bar represents the average fluorescence of 10,000 cells. Unless otherwise noted, cellular plasma membranes of Jurkat lymphocytes were preloaded with receptor 1 (10 μM) for 1 h at 37° C., cells were washed with fresh media, and His-tagged AcGFP (3.2 μM)/metal diacetate solution (100 μM) was added for 4 h at 37° C. Prior to analysis, cells were washed with NTA (400 μM, 30 min) in PBS (pH 7.4) to remove bound surface protein. Panel A: Dose dependence of receptor-mediated uptake. Premix conditions: a solution containing receptor 1, Ni(OAc)2, and AcGFP(His)10 was added to cells for 4 h. Panel B: Dependence on [Ni(OAc)2]. Panel C: Omission control experiments. Panel D; Uptake of (His)6 and (His)10 fusion proteins promoted by different metal diacetates.
Preload conditions: To Jurkat lymphocytes (7×10^5) in RPMI media (0.5 mL) was added synthetic receptor 1 (typical final [Receptor 1]=10 μM) in DMSO (final [DMSO]=1%). These cells were incubated at 37° C. for 1 h to load the receptor into cellular plasma membranes. The cells were washed with RPMI media (0.5 mL) to remove unincorporated receptor/DMSO and resuspended in fresh media (87.6 μL). […]

Jurkat lymphocytes [2] = format: cell-based
Protocol: Analysis of cytotoxicity of protein delivery.
To examine the toxicity of this metal acetate and protein delivery, cellular viability was examined by flow cytometry. In these experiments, Jurkat lymphocytes were treated with receptor 1 (10 μM, 1 h), followed by AcGFP(His)10 (3.2 μM), and Ni(OAc)2 (100 μM, 4 h) to enhance protein uptake by 600-fold. Cells were washed with disodium NTA to remove cell surface protein and were cultured for an additional 48 h. Cellular viability was determined by light scattering and staining the nuclei of membrane-compromised dead cells with the fluorophore propidium iodide. Under these conditions, 97% of the cells were viable, compared with 98.6% of untreated controls, and no effects on cellular morphology were observed. Other studies have similarly reported low toxicity of nickel salts at <160 μM in cell culture.^14 By enabling common oligohistidine affinity tags to function as cell penetrating peptides, synthetic receptor 1 provides a potentially versatile new probe of cellular biology.

`CC(C)CCC[C@@H](C)[C@H]1CC[C@H]2[C@@H]3CC=C4C[C@@H](NCCCCC(=O)NCCC(=O)NCCC(=O)NCCCCC(C(=O)O)N(CC(=O)O)CC(=O)O)CC[C@]4(C)[C@H]3CC[C@]12C` (stereo partly drawn) [receptor 1, 4-Carboxy-3-(carboxymethyl)-22-[(3β)-cholest-5-en-3-ylamino]-10,14,18-trioxo-3,9,13,17-tetraazadocosan-1-oic acid] was tested, and the “intracellular delivery of AcGFP(His)10 above basal levels of endocytosis” value (Jurkat lymphocytes [1]) was > 600 fold and 600 fold, the “effects on viability or cellular morphology” value (Jurkat lymphocytes [2]) was “No significant effects on viability or cellular morphology were observed” and the cells viable (Jurkat lymphocytes [2]; human, 10 μM) was 97%.
